Data from patent US4845080A, “Human calcitonin peptide with salmon calcitonin-like characteristics” (Ciba-Geigy Corporation, priority 1983, dated 1989).

How the values were obtained:
[1] = biological target: antibody serum to synthetic sCT; assay: Radioimmunoassay with antibodies to synthetic sCT, inhibition of [125I]sCT binding; set-up: species or system goat
Procedure: The concentration of hCT 2 is determined radioimmunologically in a concentration series. 10, 20, 50 and 100 μl, respectively, of the HPLC fractions, which have been aftertreated as described above, are preincubated for 3 days at 4° C. together with 100 μl of antibody serum to synthetic sCT (Sandoz AG, Basle, Switzerland) in an immunoassay buffer with a total volume of 300 μl (immunoassay buffer: 0.05M phosphate, pH 7.5, 10% of human serum containing no detectable amounts of immunoreactive sCT), and, after the addition of 200 μl of assay buffer having 15,000 dpm of [^125 I]sCT (specific activity 600 Ci/mmol), subsequently incubated for a further 3 days at 4° C. The labelling of sCT with ^125 I is performed with Chloramin-T (Eastman Kodak, Rochester, USA) essentially according to the method of W. M. Hunter and F. C.
The above-mentioned antibody serum is obtained as follows: The antibodies are produced in a 25 kg goat after primary immunisation with 200 μg of sCT (see above) as antigen, and reimmunisation with 100 μg of the same antigen 30 days after the primary immunisation. For immunisation, sCT is dissolved in 0.01M acetic acid (1 mg/ml), the solution is mixed with 2 percent by weight of solid aluminium hydroxide (Alhydrogel, Superfos Export Co. a/s Copenhagen, Denmark) and the mixture is suspended in an equal volume of complete Freund's adjuvant (Difco Laboratories, Detroit, Mich., USA). This suspension is produced in an Omnimixer (Sorvall) at 4° C. at the maximum mixing rate. 0.5-1.0 ml of suspension is drawn up into disposable syringes (Primo 1 ml, Asik I/S, Denmark), and administered on each leg subcutaneously in the region of the subaxillary lymph nodes. Ten days after the abovementioned reimmunisation, 50-80 ml of blood containing the desired antibodies against sCT are withdrawn from the jugular vein into heparinised tubes, and the plasma obtained is stored at -20° C. in 3-5 ml portions.
(§1) The quantity of antibodies obtained is estimated by measurement of the binding of the withdrawn plasma to [^125 I] sCT. Antibody-bound and free [^125 I]sCT are separated by means of charcoal coated with dextran, in the main according to the method of V. Herbert, K.-S. Lau, C. W. Gottlieb and S. J. Bleicher [J. Clin. Endocrinol. Metab. 25, 1375-1384 (1965)]. The same method is used for the detection of antibodies in human serum.

[2] = Detection of antibodies able to react with sCT in human serum (binding to [125I]sCT); conditions: verified with radioimmunoassay
Description: (c) in the human serum no initiation of the formation of detectable amounts of antibodies which are able to react with sCT, the binding to [^125 I]sCT having a specific activity of 600 Ci/mmol being used for verfying this evidence;
The substance hCT 2 differs from the known hCT in the aforementioned HPLC system by virtue of a clearly different retention time; on the other hand, hCT 2 has a retention time practically identical to that of sCT. In the aforementioned gel system, the elution volume of hCT 2 differs from that of hCT, but is practically identical to that of sCT. These facts indicate that hCT 2 with respect to the amino acid composition, even though not necessarily with respect to the amino acid sequence, is more closely related to sCT than to hCT. With regard to immunology, however, hCT 2 differs greatly from sCT.
as §1

SMILES	amount not giving comparable (half maximum) inhibition of the binding of [125I]sCT to the antibodies ([1]; antibody final dilution 1:25,000) [µg]	half maximum inhibition of the binding of [125I]sCT to the antibodies ([1]; antibody final dilution 1:25,000, 15,000 dpm [125I]sCT, 4° C., amount per tube)	concentration at which the antibodies react with sCT compared with hCT, which they do not recognise ([1]; lower concentration for sCT)	half maximum inhibition of the binding of [125I]sCT to the antibodies ([1]; same value given in pmol) [pmol]	formation of antibodies in the human serum [2]
CC[C@H](C)[C@H](NC(=O)[C@H](C)NC(=O)[C@@H](NC(=O)[C@H](CCC(N)=O)NC(=O)[C@@H]1CCCN1C(=O)[C@H](Cc1ccccc1)NC(=O)[C@@H](NC(=O)[C@H](Cc1c[nH]cn1)NC(=O)[C@H](Cc1ccccc1)NC(=O)[C@H](CCCCN)NC(=O)[C@H](CC(N)=O)NC(=O)[C@H](Cc1ccccc1)NC(=O)[C@H](CC(=O)O)NC(=O)[C@H](CCC(N)=O)NC(=O)[C@@H](NC(=O)[C@H](Cc1ccc(O)cc1)NC(=O)[C@@H](NC(=O)CNC(=O)[C@H](CC(C)C)NC(=O)[C@H](CCSC)NC(=O)[C@@H]1CSSC[C@H](N)C(=O)NCC(=O)N[C@@H](CC(N)=O)C(=O)N[C@@H](CC(C)C)C(=O)N[C@@H](CO)C(=O)N[C@@H]([C@@H](C)O)C(=O)N1)[C@@H](C)O)[C@@H](C)O)[C@@H](C)O)[C@@H](C)O)C(=O)NCC(=O)N[C@H](C(=O)NCC(=O)N[C@@H](C)C(=O)N1CCC[C@H]1C(N)=O)C(C)C [hCT, human calcitonin-(1-32)]	> 10				
CC(C)C[C@H](NC(=O)[C@H](CCCCN)NC(=O)CNC(=O)[C@H](CC(C)C)NC(=O)[C@@H](NC(=O)[C@@H]1CSSC[C@H](N)C(=O)N[C@@H](CO)C(=O)N[C@@H](CC(N)=O)C(=O)N[C@@H](CC(C)C)C(=O)N[C@@H](CO)C(=O)N[C@@H]([C@@H](C)O)C(=O)N1)C(C)C)C(=O)N[C@@H](CO)C(=O)N[C@@H](CCC(N)=O)C(=O)N[C@@H](CCC(=O)O)C(=O)N[C@@H](CC(C)C)C(=O)N[C@@H](Cc1c[nH]cn1)C(=O)N[C@@H](CCCCN)C(=O)N[C@@H](CC(C)C)C(=O)N[C@@H](CCC(N)=O)C(=O)N[C@H](C(=O)N[C@@H](Cc1ccc(O)cc1)C(=O)N1CCC[C@H]1C(=O)N[C@@H](CCCNC(=N)N)C(=O)N[C@H](C(=O)N[C@@H](CC(N)=O)C(=O)N[C@H](C(=O)NCC(=O)N[C@@H](CO)C(=O)NCC(=O)N[C@H](C(=O)N1CCC[C@H]1C(N)=O)[C@@H](C)O)[C@@H](C)O)[C@@H](C)O)[C@@H](C)O [sCT, salmon calcitonin-(1-32)]		about 100 pg	≤ 10^5 fold	0.03	produces in the human serum an antibody response
